Columns and labels:
Experiment in all cases: relative viability (nuclei count vs DMSO), 5 days (fraction); higher = more cells survive
Crenolanib + Olaparib = compound: CC1(COc2ccc3c(c2)ncn3-c2ccc3cccc(N4CCC(N)CC4)c3n2)COC1 [Crenolanib] + O=C(c1cc(Cc2n[nH]c(=O)c3ccccc23)ccc1F)N1CCN(C(=O)C2CC2)CC1 [Olaparib] (partner 8 µM)
How it was run: (§1)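 Relative viability was taken as the ratio of nuclei in treated wells to nuclei in vehicle wells. Lung cancer cell lines in 1536-well plates received compounds by pin tool one day after seeding, either one drug alone or a fixed anchor-drug dose plus five library-drug doses (not always all listed) in √10 steps. Nuclei were counted on 4× images after 5 days of treatment, and values are medians of duplicate plates.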

Tivantinib + Vorinostat = compound: O=C1NC(=O)[C@@H](c2cn3c4c(cccc24)CCC3)[C@@H]1c1c[nH]c2ccccc12 [Tivantinib] + O=C(CCCCCCC(=O)Nc1ccccc1)NO [Vorinostat] (partner 1 µM)
How it was run: as §1

Crenolanib + Pemetrexed = compound: CC1(COc2ccc3c(c2)ncn3-c2ccc3cccc(N4CCC(N)CC4)c3n2)COC1 [Crenolanib] + Nc1nc2[nH]cc(CCc3ccc(C(=O)N[C@@H](CCC(=O)O)C(=O)O)cc3)c2c(=O)[nH]1 [Pemetrexed] (partner 0.2 µM)
How it was run: as §1

Tivantinib + Pictilisib = compound: O=C1NC(=O)[C@@H](c2cn3c4c(cccc24)CCC3)[C@@H]1c1c[nH]c2ccccc12 [Tivantinib] + CS(=O)(=O)N1CCN(Cc2cc3nc(-c4cccc5[nH]ncc45)nc(N4CCOCC4)c3s2)CC1 [Pictilisib] (partner 1 µM)
How it was run: as §1

For HCC-827, the relative viability (Crenolanib + Olaparib; first compound 0.01 µM) was 0.702, the relative viability (Crenolanib + Olaparib; first compound 0.03162 µM) was 0.659 and the relative viability (Crenolanib + Olaparib; first compound 0.1 µM) was 0.655. For the same cell line, the relative viability (Crenolanib + Olaparib; first compound 0.3162 µM) was 0.634, the relative viability (Crenolanib + Olaparib; first compound 1 µM) was 0.677 and the relative viability (Tivantinib + Vorinostat; first compound 0.01 µM) was 0.826. For the same cell line, the relative viability (Tivantinib + Vorinostat; first compound 0.03162 µM) was 0.809, the relative viability (Tivantinib + Vorinostat; first compound 0.1 µM) was 0.862 and the relative viability (Crenolanib + Pemetrexed; first compound 0.01 µM) was 0.256. It also gave a relative viability (Crenolanib + Pemetrexed; first compound 0.03162 µM) of 0.277, a relative viability (Crenolanib + Pemetrexed; first compound 0.1 µM) of 0.195 and a relative viability (Crenolanib + Pemetrexed; first compound 0.3162 µM) of 0.26. For the same cell line, the relative viability (Crenolanib + Pemetrexed; first compound 1 µM) was 0.268, the relative viability (Tivantinib + Pictilisib; first compound 0.01 µM) was 1.15 and the relative viability (Tivantinib + Pictilisib; first compound 0.03162 µM) was 1.01. For the same cell line, the relative viability (Tivantinib + Pictilisib; first compound 0.1 µM) was 0.983 and the relative viability (Tivantinib + Pictilisib; first compound 0.3162 µM) was 0.415.

HOP-62 showed a relative viability (Crenolanib + Olaparib; first compound 0.01 µM) of 0.398, a relative viability (Crenolanib + Olaparib; first compound 0.03162 µM) of 0.192 and a relative viability (Crenolanib + Olaparib; first compound 0.1 µM) of 0.45. The relative viability (Crenolanib + Olaparib; first compound 0.3162 µM) was 0.387, the relative viability (Crenolanib + Olaparib; first compound 1 µM) was 0.33 and the relative viability (Tivantinib + Vorinostat; first compound 0.01 µM) was 0.606. It also gave a relative viability (Tivantinib + Vorinostat; first compound 0.03162 µM) of 0.301, a relative viability (Tivantinib + Vorinostat; first compound 0.1 µM) of 0.554 and a relative viability (Tivantinib + Vorinostat; first compound 0.3162 µM) of 0.803. It also gave a relative viability (Crenolanib + Pemetrexed; first compound 0.01 µM) of 0.322, a relative viability (Crenolanib + Pemetrexed; first compound 0.03162 µM) of 0.345 and a relative viability (Crenolanib + Pemetrexed; first compound 0.1 µM) of 0.373. The relative viability (Crenolanib + Pemetrexed; first compound 0.3162 µM) was 0.362, the relative viability (Crenolanib + Pemetrexed; first compound 1 µM) was 0.417 and the relative viability (Tivantinib + Pictilisib; first compound 0.01 µM) was 0.708. For the same cell line, the relative viability (Tivantinib + Pictilisib; first compound 0.1 µM) was 0.864 and the relative viability (Tivantinib + Pictilisib; first compound 0.3162 µM) was 0.792.

With IA-LM the relative viability (Crenolanib + Olaparib; first compound 0.01 µM) was 0.847, the relative viability (Crenolanib + Olaparib; first compound 0.03162 µM) was 0.907 and the relative viability (Crenolanib + Olaparib; first compound 0.1 µM) was 0.88. For the same cell line, the relative viability (Crenolanib + Olaparib; first compound 0.3162 µM) was 0.817, the relative viability (Crenolanib + Olaparib; first compound 1 µM) was 0.883 and the relative viability (Tivantinib + Vorinostat; first compound 0.01 µM) was 1.01. For the same cell line, the relative viability (Tivantinib + Vorinostat; first compound 0.03162 µM) was 0.826, the relative viability (Tivantinib + Vorinostat; first compound 0.1 µM) was 0.87 and the relative viability (Tivantinib + Vorinostat; first compound 0.3162 µM) was 0.895. The relative viability (Tivantinib + Pictilisib; first compound 0.01 µM) was 0.401, the relative viability (Tivantinib + Pictilisib; first compound 0.03162 µM) was 0.334 and the relative viability (Tivantinib + Pictilisib; first compound 0.1 µM) was 0.343. For the same cell line, the relative viability (Tivantinib + Pictilisib; first compound 0.3162 µM) was 0.218.

With LC-2-ad the relative viability (Crenolanib + Olaparib; first compound 0.01 µM) was 0.65, the relative viability (Crenolanib + Olaparib; first compound 0.03162 µM) was 0.704 and the relative viability (Crenolanib + Olaparib; first compound 0.1 µM) was 0.728. For the same cell line, the relative viability (Crenolanib + Olaparib; first compound 0.3162 µM) was 0.74, the relative viability (Crenolanib + Olaparib; first compound 1 µM) was 0.65 and the relative viability (Tivantinib + Vorinostat; first compound 0.01 µM) was 0.694. It also gave a relative viability (Tivantinib + Vorinostat; first compound 0.03162 µM) of 0.694, a relative viability (Tivantinib + Vorinostat; first compound 0.1 µM) of 0.655 and a relative viability (Tivantinib + Vorinostat; first compound 0.3162 µM) of 0.715. It also gave a relative viability (Crenolanib + Pemetrexed; first compound 0.01 µM) of 0.265, a relative viability (Crenolanib + Pemetrexed; first compound 0.03162 µM) of 0.287 and a relative viability (Crenolanib + Pemetrexed; first compound 0.1 µM) of 0.277. It also gave a relative viability (Crenolanib + Pemetrexed; first compound 0.3162 µM) of 0.291, a relative viability (Crenolanib + Pemetrexed; first compound 1 µM) of 0.261 and a relative viability (Tivantinib + Pictilisib; first compound 0.01 µM) of 0.462. For the same cell line, the relative viability (Tivantinib + Pictilisib; first compound 0.03162 µM) was 0.354, the relative viability (Tivantinib + Pictilisib; first compound 0.1 µM) was 0.479 and the relative viability (Tivantinib + Pictilisib; first compound 0.3162 µM) was 0.511.

LCLC-97TM1 was tested, and the relative viability (Crenolanib + Olaparib; first compound 0.01 µM) was 0.395, the relative viability (Crenolanib + Olaparib; first compound 0.03162 µM) was 0.53 and the relative viability (Crenolanib + Olaparib; first compound 0.1 µM) was 0.383. For the same cell line, the relative viability (Crenolanib + Olaparib; first compound 0.3162 µM) was 0.42, the relative viability (Crenolanib + Olaparib; first compound 1 µM) was 0.412 and the relative viability (Tivantinib + Vorinostat; first compound 0.01 µM) was 0.71. For the same cell line, the relative viability (Tivantinib + Vorinostat; first compound 0.03162 µM) was 0.284, the relative viability (Tivantinib + Vorinostat; first compound 0.1 µM) was 0.671 and the relative viability (Tivantinib + Vorinostat; first compound 0.3162 µM) was 0.833. The relative viability (Crenolanib + Pemetrexed; first compound 0.01 µM) was 0.192, the relative viability (Crenolanib + Pemetrexed; first compound 0.03162 µM) was 0.188 and the relative viability (Crenolanib + Pemetrexed; first compound 0.1 µM) was 0.182. For the same cell line, the relative viability (Crenolanib + Pemetrexed; first compound 0.3162 µM) was 0.197, the relative viability (Crenolanib + Pemetrexed; first compound 1 µM) was 0.184 and the relative viability (Tivantinib + Pictilisib; first compound 0.01 µM) was 0.199. For the same cell line, the relative viability (Tivantinib + Pictilisib; first compound 0.03162 µM) was 0.14, the relative viability (Tivantinib + Pictilisib; first compound 0.1 µM) was 0.234 and the relative viability (Tivantinib + Pictilisib; first compound 0.3162 µM) was 0.181.

With LCLC-103H the relative viability (Crenolanib + Olaparib; first compound 0.01 µM) was 0.751, the relative viability (Crenolanib + Olaparib; first compound 0.03162 µM) was 0.759 and the relative viability (Crenolanib + Olaparib; first compound 0.1 µM) was 0.68. It also gave a relative viability (Crenolanib + Olaparib; first compound 0.3162 µM) of 0.698, a relative viability (Crenolanib + Olaparib; first compound 1 µM) of 0.712 and a relative viability (Tivantinib + Vorinostat; first compound 0.01 µM) of 0.756. The relative viability (Tivantinib + Vorinostat; first compound 0.03162 µM) was 0.642, the relative viability (Tivantinib + Vorinostat; first compound 0.1 µM) was 0.749 and the relative viability (Tivantinib + Vorinostat; first compound 0.3162 µM) was 0.936. The relative viability (Crenolanib + Pemetrexed; first compound 0.01 µM) was 0.453, the relative viability (Crenolanib + Pemetrexed; first compound 0.03162 µM) was 0.45 and the relative viability (Crenolanib + Pemetrexed; first compound 0.1 µM) was 0.476. It also gave a relative viability (Crenolanib + Pemetrexed; first compound 0.3162 µM) of 0.503, a relative viability (Crenolanib + Pemetrexed; first compound 1 µM) of 0.48 and a relative viability (Tivantinib + Pictilisib; first compound 0.01 µM) of 0.684. The relative viability (Tivantinib + Pictilisib; first compound 0.03162 µM) was 0.517, the relative viability (Tivantinib + Pictilisib; first compound 0.1 µM) was 0.704 and the relative viability (Tivantinib + Pictilisib; first compound 0.3162 µM) was 0.63.

With LK-2 the relative viability (Crenolanib + Olaparib; first compound 0.01 µM) was 0.837, the relative viability (Crenolanib + Olaparib; first compound 0.03162 µM) was 0.572 and the relative viability (Crenolanib + Olaparib; first compound 0.1 µM) was 0.655. It also gave a relative viability (Crenolanib + Olaparib; first compound 0.3162 µM) of 1.06, a relative viability (Crenolanib + Olaparib; first compound 1 µM) of 0.585 and a relative viability (Tivantinib + Vorinostat; first compound 0.01 µM) of 0.219. It also gave a relative viability (Tivantinib + Vorinostat; first compound 0.03162 µM) of 0.34, a relative viability (Tivantinib + Vorinostat; first compound 0.1 µM) of 0.217 and a relative viability (Tivantinib + Vorinostat; first compound 0.3162 µM) of 0.311. It also gave a relative viability (Crenolanib + Pemetrexed; first compound 0.01 µM) of 0.314, a relative viability (Crenolanib + Pemetrexed; first compound 0.03162 µM) of 0.268 and a relative viability (Crenolanib + Pemetrexed; first compound 0.1 µM) of 0.263. It also gave a relative viability (Crenolanib + Pemetrexed; first compound 0.3162 µM) of 0.27, a relative viability (Crenolanib + Pemetrexed; first compound 1 µM) of 0.274 and a relative viability (Tivantinib + Pictilisib; first compound 0.01 µM) of 0.685. It also gave a relative viability (Tivantinib + Pictilisib; first compound 0.1 µM) of 0.567 and a relative viability (Tivantinib + Pictilisib; first compound 0.3162 µM) of 0.496.

LOU-NH91 was tested, and the relative viability (Crenolanib + Olaparib; first compound 0.01 µM) was 0.943, the relative viability (Crenolanib + Olaparib; first compound 0.03162 µM) was 0.88 and the relative viability (Crenolanib + Olaparib; first compound 0.1 µM) was 0.837. The relative viability (Crenolanib + Olaparib; first compound 0.3162 µM) was 0.971, the relative viability (Crenolanib + Olaparib; first compound 1 µM) was 0.905 and the relative viability (Tivantinib + Vorinostat; first compound 0.01 µM) was 0.838. The relative viability (Tivantinib + Vorinostat; first compound 0.03162 µM) was 0.811, the relative viability (Tivantinib + Vorinostat; first compound 0.1 µM) was 0.916 and the relative viability (Tivantinib + Vorinostat; first compound 0.3162 µM) was 0.749. For the same cell line, the relative viability (Crenolanib + Pemetrexed; first compound 0.01 µM) was 0.399, the relative viability (Crenolanib + Pemetrexed; first compound 0.03162 µM) was 0.45 and the relative viability (Crenolanib + Pemetrexed; first compound 0.1 µM) was 0.353. For the same cell line, the relative viability (Crenolanib + Pemetrexed; first compound 0.3162 µM) was 0.423, the relative viability (Crenolanib + Pemetrexed; first compound 1 µM) was 0.383 and the relative viability (Tivantinib + Pictilisib; first compound 0.01 µM) was 0.517. It also gave a relative viability (Tivantinib + Pictilisib; first compound 0.03162 µM) of 0.485, a relative viability (Tivantinib + Pictilisib; first compound 0.1 µM) of 0.521 and a relative viability (Tivantinib + Pictilisib; first compound 0.3162 µM) of 0.519.

LU99A was tested, and the relative viability (Crenolanib + Olaparib; first compound 0.01 µM) was 0.274, the relative viability (Crenolanib + Olaparib; first compound 0.03162 µM) was 0.283 and the relative viability (Crenolanib + Olaparib; first compound 0.1 µM) was 0.281. For the same cell line, the relative viability (Crenolanib + Olaparib; first compound 0.3162 µM) was 0.22, the relative viability (Crenolanib + Olaparib; first compound 1 µM) was 0.27 and the relative viability (Tivantinib + Vorinostat; first compound 0.01 µM) was 0.514. The relative viability (Tivantinib + Vorinostat; first compound 0.03162 µM) was 0.438, the relative viability (Tivantinib + Vorinostat; first compound 0.1 µM) was 0.456 and the relative viability (Tivantinib + Vorinostat; first compound 0.3162 µM) was 0.47. It also gave a relative viability (Crenolanib + Pemetrexed; first compound 0.01 µM) of 0.22, a relative viability (Crenolanib + Pemetrexed; first compound 0.03162 µM) of 0.204 and a relative viability (Crenolanib + Pemetrexed; first compound 0.1 µM) of 0.151. It also gave a relative viability (Crenolanib + Pemetrexed; first compound 0.3162 µM) of 0.197, a relative viability (Crenolanib + Pemetrexed; first compound 1 µM) of 0.198 and a relative viability (Tivantinib + Pictilisib; first compound 0.01 µM) of 0.288. For the same cell line, the relative viability (Tivantinib + Pictilisib; first compound 0.03162 µM) was 0.308, the relative viability (Tivantinib + Pictilisib; first compound 0.1 µM) was 0.292 and the relative viability (Tivantinib + Pictilisib; first compound 0.3162 µM) was 0.287.

Source: the supplement of paper PMC10307832
